How the values were obtained:
[1] = system: adjuvant-induced arthritis; test: Activity in preventing the development of adjuvant-induced arthritis in vivo; settings: dose: 10 mg/kg, oral once a day from day 0 to day 20; measured on day 21; Lewis rat
Protocol: Activity in Preventing the Development of Adjuvant-Induced Arthritis In Vivo The test was performed according to the method described by Winder et al. (Arthritis Rheum., 12, 472-482, 1969). Heat-killed dried Mycobacterium butyricum (Difco Laboratories, Lot 679123) was ground on an agate mortar, and was then suspended in dry-sterilised liquid paraffin (first grade, Wako Pure Chemical Industries, Ltd.) to make a 2 mg/ml suspension. The resulting suspension was then sonicated and used as an adjuvant. Arthritis was induced by the intradermal injection of the adjuvant (100 μg of heat killed dried bacterium/0.05 ml of paraffin/paw) into the heel of the right hind paw of a Lewis rat (male, age 9 weeks, 190 g, Japan Charles River). The rats were assigned to groups of 5 animals each. […] The volumes of the right hind paw (adjuvant-injected paw) and left hind paw (non-injected paw) were measured on days 3, 5, 7, 10, 13, 15, 18 and 21 using a Plethysmometer™ (Ugo Basile), the hind paws being soaked from the toe to the hairline in the bath of the Plethysmometer™. The volumes of the swollen feet (adjuvant-injected right hind foot volume—non-injected left hind foot volume) were calculated. The percent inhibition of swelling of the injected foot of the treated animals as compared to that of the control animals on day 21 was calculated as follows. [formula]

TNFα production [2] = test: Inhibition of the production of TNFα in vitro in human whole blood; type: cell-based; settings: lipopolysaccharide 10 μg/ml, 6 hours at 37° C., ELISA of plasma, read-out: Inhibitory Effect on TNFα Production (in vitro) IC50
Protocol: Inhibition of the Production of the Cytokines IL-1β and TNFα In Vitro in Human Whole Blood
This test was performed according to the method of Hartman, et al. [D. A. Hartman, S. J. Ochalski and R. P. Carlson; The effects of anti-inflammatory and antiallergic drugs on cytokine release after stimulation of human whole blood by lipopolysaccharide and zymosan A: Inflamm. Res., 44, 269 (1995)].
Peripheral blood samples were collected in the presence of heparin from healthy adult volunteers. 1000 μl of whole blood was added to an Eppendorf tube to which 2 μl of a dimethyl sulfoxide solution of the test compound had been previously added, after which 10 μl of lipopolysaccharide (E. coli O26: B6 origin, Difco) was added as a stimulant (final concentration of said lipopolysaccharide: 10 μg/ml). This was thoroughly mixed and then incubated for 6 hours at 37° C. in the presence of 5% CO2. At the end of the incubation, the mixture was cooled to 4° C. to stop the reaction, followed immediately by centrifuging for 5 minutes at 14,000 rpm to separate and collect the supernatant plasma. The IL-1β and TNFα produced and released into the plasma were measured using a commercially available enzyme immunoassay (ELISA) kits [Cayman and Genzyme]. The inhibitory effect [IC50 (μM)] on the production of cytokines was determined by the method of least squares from the amounts of the cytokines produced in the presence and absence of the test compound.

TNFα production [3] = test: Inhibition of the production of TNFα in vivo (lipopolysaccharide-injected mice); settings: Mus musculus, oral, 30 minutes before lipopolysaccharide injection, plasma TNFα 1 hour after LPS, Balb/c mice, average vs control group, read-out: Inhibition Rate (%) of TNFα Production (in vivo)
Protocol: Inhibition of the Production of TNFα In Vivo
This test was performed according to the method of Ochalaki et al. [S. J. Ochalaki, D. A. Hartman, M. T. Belfast, T. L. Walter, K. B. Glaser and R. P. Carlson; Inhibition of endotoxin-induced hypothermia and serum TNFα levels in CD-1 mice by various pharmacological agents: Agents Actions 39, C52-C54 (1998)].
The production of TNFα was induced in mice by intravenous injection of lipopolysaccharide (E. coli O26: B6 origin, Difco) which was prepared to a concentration of 0.045 mg/ml using physiological saline. The saline preparation of lipopolysaccharide was administered at the rate of 10 ml/1 kg of body weight into the caudal vein of Balb/c mice (males, age 5-7 weeks, body weight: approx. 22 g, Japan Charles River) which had been fasted overnight starting the day before the experiment. One hour after administration, the mice were laparotomized under ether anaesthesia and blood was collected from the abdominal vena cava. Blood collection was performed using a 1 ml volume disposable syringe equipped with a 23G needle which had been moistened with heparin on the inside wall. Following blood collection, the blood was immediately transferred to a 1.5 ml volume Eppendorf tube and centrifuged at 4° C. and 14,000 rpm to separate the plasma. This plasma was then stored at −20° C. until measurement of TNFα.
The measurement of the amount of TNFα was performed with a enzyme immunoassay (ELISA) kit (Mouse TNFα ELISA KIT, Genzyme).
To determine the inhibitory activity of the test compounds, each test compound was suspended in 0.5% tragacanth solution ad then administered orally to the mice at a rate of 10 ml/1 kg of body weight 30 minutes before injection of the lipopolysaccharide, and the average inhibition rates were calculated versus a control group.

Structure (SMILES)	Inhibition rate (%) of swelling of adjuvant-injected foot [1]	IC50 (TNFα production [2])	inhibition in vivo at 5 mg/kg (TNFα production [3])
Fc1ccc(-c2[nH]cc(C3=C[C@@H]4C[C@@H](c5ccccc5)CN4CC3)c2-c2ccncc2)cc1 [Example 2, 2-(4-Fluorophenyl)-4-[(2S,8aS)-2-phenyl-1,2,3,5,6,8a-hexahydroindolizin-7-yl]-3-(pyridin-4-yl)-1H-pyrrole]	84%	–	–
Fc1ccc(-c2[nH]cc(C3=C[C@@H]4C[C@H](c5ccc(F)cc5)CN4CC3)c2-c2ccncc2)cc1 [Example 3, 2-(4-Fluorophenyl)-4-[(2R,8aS)-2-(4-fluorophenyl)-1,2,3,5,6,8a-hexahydroindolizin-7-yl]-3-(pyridin-4-yl)-1H-pyrrole]	–	5.1 nM	–
Cc1ccc([C@H]2C[C@H]3C=C(c4c[nH]c(-c5ccc(F)cc5)c4-c4ccncc4)CCN3C2)cc1 [Example 4, 2-(4-Fluorophenyl)-4-[(2R,8aS)-2-(4-methylphenyl)-1,2,3,5,6,8a-hexahydroindolizin-7-yl]-3-(pyridin-4-yl)-1H-pyrrole]	–	7.8 nM	–
CCC[C@H]1C[C@H]2C=C(c3n[nH]c(-c4ccc(F)cc4)c3-c3ccncc3)CCN2C1 [Example 6, 5-(4-Fluorophenyl)-3-[(2S,8aS)-2-propyl-1,2,3,5,6,8a-hexahydroindolizin-7-yl]-4-(pyridin-4-yl)-pyrazole]	–	6.3 nM	–
Fc1ccc(-c2[nH]nc(C3=C[C@@H]4C[C@@H](c5ccccc5)CN4CC3)c2-c2ccncc2)cc1 [Example 7, 5-(4-Fluorophenyl)-3-[(2S,8aS)-2-phenyl-1,2,3,5,6,8a-hexahydroindolizin-7-yl]-4-(pyridin-4-yl)pyrazole]	81%	–	–
Fc1ccc(-c2[nH]cc(C3=C[C@@H]4C[C@@H](c5ccccc5)CN4CC3)c2-c2ccncc2)cc1F [Example 8, 2-(3,4-Difluorophenyl)-4-[(2S,8aS)-2-phenyl-1,2,3,5,6,8a-hexahydroindolizin-7-yl]-3-(pyridin-4-yl)-1H-pyrrole]	–	–	91%
Clc1cccc(-c2[nH]cc(C3=C[C@@H]4C[C@@H](c5ccccc5)CN4CC3)c2-c2ccncc2)c1 [Example 10, 2-(3-Chlorophenyl)-4-[(2S,8aS)-2-phenyl-1,2,3,5,6,8a-hexahydroindolizin-7-yl]-3-(pyridin-4-yl)-1H-pyrrole]	–	7.3 nM	91%
Cc1ccc([C@@H]2C[C@H]3C=C(c4c[nH]c(-c5ccc(F)c(F)c5)c4-c4ccncc4)CCN3C2)cc1 [Example 12, 2-(3,4-Difluorophenyl)-4-[(2S,8aS)-2-(4-methylphenyl)-1,2,3,5,6,8a-hexahydroindolizin-7-yl]-3-(pyridin-4-yl)-1H-pyrrole]	–	5.5 nM	–
COc1ccc([C@@H]2C[C@H]3C=C(c4c[nH]c(-c5ccc(F)cc5)c4-c4ccncc4)CCN3C2)cc1 [Example 16, 2-(4-Fluorophenyl)-4-[(2S,8aS)-2-(4-methoxyphenyl)-1,2,3,5,6,8a-hexahydroindolizin-7-yl]-3-(pyridin-4-yl)-1H-pyrrole]	–	5.4 nM	90%
COc1ccc([C@@H]2C[C@H]3C=C(c4c[nH]c(-c5cccc(Cl)c5)c4-c4ccncc4)CCN3C2)cc1 [Example 23, 2-(3-Chlorophenyl)-4-[(2S,8aS)-2-(4-methoxyphenyl)-1,2,3,5,6,8a-hexahydroindolizin-7-yl]-3-(pyridin-4-yl)-1H-pyrrole]	–	–	90%
C1=C(c2c[nH]c(-c3ccccc3)c2-c2ccncc2)CCN2C[C@H](c3ccccc3)C[C@@H]12 [Example 25, 2-Phenyl-4-[(2S,8aS)-2-phenyl-1,2,3,5,6,8a-hexahydroindolizin-7-yl]-3-(pyridin-4-yl)-1H-pyrrole]	–	–	92%
CCOc1ccc([C@@H]2C[C@H]3C=C(c4c[nH]c(-c5ccc(F)cc5)c4-c4ccncc4)CCN3C2)cc1 [Example 30, 4-[(2S,8aS)-2-(4-Ethoxyphenyl)-1,2,3,5,6,8a-hexahydroindolizin-7-yl]-2-(4-fluorophenyl)-3-(pyridin-4-yl)-1H-pyrrole]	–	–	90%
COc1cccc([C@@H]2C[C@H]3C=C(c4c[nH]c(-c5ccc(F)c(F)c5)c4-c4ccncc4)CCN3C2)c1 [Example 31, 2-(3,4-Difluorophenyl)-4-[(2S,8aS)-2-(3-methoxyphenyl)-1,2,3,5,6,8a-hexahydroindolizin-7-yl]-3-(pyridin-4-yl)-1H-pyrrole]	–	–	92%
Cc1ccc([C@@H]2C[C@H]3C=C(c4c[nH]c(-c5ccc(F)c(F)c5)c4-c4ccncc4)CCN3C2)cc1C [Example 41, 2-(3,4-Difluorophenyl)-4-[(2S,8aS)-2-(3,4-dimethylphenyl)-1,2,3,5,6,8a-hexahydroindolizin-7-yl]-3-(pyridin-4-yl)-1H-pyrrole]	–	–	91%
Fc1ccc(-c2[nH]cc(C3=C[C@@H]4C[C@@H](c5ccccc5)CN4CC3)c2-c2ccncc2)cc1Cl [Example 46, 2-(3-Chloro-4-fluorophenyl)-4-[(2S,8aS)-2-phenyl-1,2,3,5,6,8a-hexahydroindolizin-7-yl]-3-(pyridin-4-yl)-1H-pyrrole]	–	2.1 nM	93%

— US20050159444A1, “Bicyclic unsaturated tertiary amine compounds” (SANKYO COMPANY, LIMITED, priority 2002, published 2005)
